Assay results taken from patent publication EP0310585B1, “Octapeptide inhibitors of myristoylating enzymes” (WASHINGTON UNIVERSITY, priority 1987, dated 1989).
Where no end group is shown, it is not given here.

Tests used:
[1] = molecular target: T1, N-myristoylglycylpeptide synthetase (N-myristoyl transferase or NMT) (Saccharomyces cerevisiae, UniProt P14743); assay: Octapeptide substrate specificity / kinetic characterization with partially purified yeast myristoylating enzyme (Table II); type: biochemical
T1 construct: endogenous in cells; host or cells: S. cerevisiae strain JR153
T1 sequence (P14743 1-455): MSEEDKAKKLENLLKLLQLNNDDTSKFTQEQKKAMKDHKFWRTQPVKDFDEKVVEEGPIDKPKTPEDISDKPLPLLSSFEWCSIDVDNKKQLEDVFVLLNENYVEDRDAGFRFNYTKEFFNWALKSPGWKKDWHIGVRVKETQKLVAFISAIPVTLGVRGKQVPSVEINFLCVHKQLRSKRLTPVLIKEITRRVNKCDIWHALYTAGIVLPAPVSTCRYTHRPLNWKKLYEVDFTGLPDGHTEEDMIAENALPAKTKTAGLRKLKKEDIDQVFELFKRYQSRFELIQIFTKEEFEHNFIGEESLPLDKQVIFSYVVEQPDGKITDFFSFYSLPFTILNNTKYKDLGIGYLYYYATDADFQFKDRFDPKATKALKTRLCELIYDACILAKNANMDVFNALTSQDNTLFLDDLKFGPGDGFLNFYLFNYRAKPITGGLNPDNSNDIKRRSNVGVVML
Description: The synthetic octapeptides I and II were initially used to identify a unique enzymatic activity which transfers myristic acid to the amino terminal glycine of this and other peptides. […] The enzyme activity was determined in an in vitro assay which measures the transfer of [³H]-myristic acid to the acceptor peptide, […]. The transfer reaction is dependent on adenosine triphosphate (ATP) and coenzyme A (CoA). The enzymatic product was then identified by high performance liquid chromatography (HPLC) by co-elution with a chemically synthesized myristoyl peptide standard. […] Both contained M-myristoyl glycine.
Assay for N-myristoylglycylpeptide synthetase activity. [³H]Fatty acyl CoA was synthesized enzymatically and added to the incubation as follows. […] Typically, 40% to 50% of the [³H]fatty acid was converted to its CoA ester by this procedure as measured by determining the radioactivity remaining in the reaction after acidification with 6 N HCl to pH 2.0 and extraction 6 times with 5 volumes of heptane, a modification of the method of Hosaka et al., Meth. […] One minute fractions were collected and the radioactivity in each fraction determined by liquid scintillation counting. […]

[2] = molecular target: T2, N-myristoylglycylpeptide synthetase (Saccharomyces cerevisiae, UniProt P14743); assay: Assay for N-myristoylglycylpeptide synthetase activity, crude yeast membrane fractions (Table I); type: biochemical; details: Test 3: + 1 mM peptide, 18 µM peptide substrate GlyAsnAlaAlaAlaAlaArgArg, control 26.7
T2 construct: A protease-deficient strain of Saccharomyces cerevisiae, JR153 [Hemmings et al., Proc. Natl. Acad. Sci. USA 78, 435-439 (1981)], was used as a source of N-myristoylglycylpeptide synthetase; endogenous in cells; host or cells: S. cerevisiae strain JR153, crude membrane pellet of cell lysate
T2 sequence (P14743 1-455): T1 sequence (P14743 1-455)
Description: Preparation of yeast extract for the assay of N-myristoylglycylpeptide synthetase activity. Yeast cultures were grown as described above to O.D. 660 nm of 1 to 3. Cells from 40 ml of culture were collected by centrifugation at 4°C at 7600 x g for 10 minutes. The supernatant was decanted, the cell pellet was resuspended by pipetting into 1 ml of cold 10 mM Tris, pH 7.4, transferred to a 1.5 ml conical polypropylene centrifuge tube, and the cells were then repelleted at 4°C at 7600 x g for 10 minutes. […] Protein was determined by the method of Peterson, Anal. Biochem. 83, 346-356 (1977).
Assay for N-myristoylglycylpeptide synthetase activity. […] Typically, 40% to 50% of the [³H]fatty acid was converted to its CoA ester by this procedure as measured by determining the radioactivity remaining in the reaction after acidification with 6 N HCl to pH 2.0 and extraction 6 times with 5 volumes of heptane, a modification of the method of Hosaka et al., Meth. […] (Under these conditions, 95% of synthetic [³H]myristoylpeptide or [³H]palmitoylpeptide remined soluble when added to an assay mixture.) Fifty microliters of the supernatant were mixed with 75 µl methanol and 75 µl of HPLC buffer A, and analyzed by reverse phase HPLC on a 3.9 mm by 30 cm Waters µ-Bondapak C₁₈ column using the same HPLC buffers described above, starting at 35% acetonitrile and eluting with a 1% per minute acetonitrile gradient. […]

Row | Substance | Ki [1] [µM] | Rate of Myristoylpeptide Synthesis [2] [DPM x 10⁻³ /10 min]
1 | GNAAKARR-NH2 [Gly-Asn-Ala-Ala-Lys-Ala-Arg-Arg] | 50 | –
2 | GSSKSPKDPS [a decapeptide containing N-terminal glycine] | – | 27.4
3 | GNANSARR-NH2 [Gly-Asn-Ala-Asn-Ser-Ala-Arg-Arg] | 0.3 | –
4 | GPRP | – | 25.6
